Results on 5 molecules are retold here after PubChem BioAssay AID1259407 (Chemical Carcinogenesis Research Information System (CCRIS), 2018).

Calls of active or inactive are those of the source. No rule for the calls is given here.

The series concerns CCRIS mutagenicity, Ames/micronucleus/aberration tests. Kind of series: CCRIS mutagenicity studies.
Setting [1] is: Test System: AMES SALMONELLA TYPHIMURIUM, Strain/Indicator: TA98, Metabolic Activation: NONE, Method: STANDARD PLATE.
[2] abbreviates: Test System: AMES SALMONELLA TYPHIMURIUM, Strain/Indicator: TA100, Metabolic Activation: NONE, Method: STANDARD PLATE.
The mark [3] stands for this setting: Test System: AMES SALMONELLA TYPHIMURIUM, Strain/Indicator: TA98, Metabolic Activation: NONE, Method: PREINCUBATION
Where [4] appears, read: Test System: AMES SALMONELLA TYPHIMURIUM, Strain/Indicator: TA100, Metabolic Activation: NONE, Method: PREINCUBATION
Setting [5] is: Test System: AMES SALMONELLA TYPHIMURIUM, Strain/Indicator: TA1535, Metabolic Activation: NONE, Method: PREINCUBATION
Where [6] appears, read: Test System: AMES SALMONELLA TYPHIMURIUM, Strain/Indicator: TA1537, Metabolic Activation: NONE, Method: PREINCUBATION
Where [7] appears, read: Test System: AMES SALMONELLA TYPHIMURIUM, Strain/Indicator: TA97, Metabolic Activation: HAMSTER, LIVER, S-9, AROCLOR 1254 (10 OR 30%), Method: PREINCUBATION
Where [8] appears, read: Test System: AMES SALMONELLA TYPHIMURIUM, Strain/Indicator: TA97, Metabolic Activation: NONE, Method: PREINCUBATION
Where [9] appears, read: Test System: AMES SALMONELLA TYPHIMURIUM, Strain/Indicator: TA97, Metabolic Activation: RAT, LIVER, S-9, AROCLOR 1254 (10 OR 30%), Method: PREINCUBATION
Where [10] appears, read: Test System: AMES SALMONELLA TYPHIMURIUM, Strain/Indicator: TA98, Metabolic Activation: HAMSTER, LIVER, S-9, AROCLOR 1254 (10 OR 30%), Method: PREINCUBATION
The mark [11] stands for this setting: Test System: AMES SALMONELLA TYPHIMURIUM, Strain/Indicator: TA98, Metabolic Activation: RAT, LIVER, S-9, AROCLOR 1254 (10 OR 30%), Method: PREINCUBATION
Setting [12] is: Test System: AMES SALMONELLA TYPHIMURIUM, Strain/Indicator: TA100, Metabolic Activation: HAMSTER, LIVER, S-9, AROCLOR 1254 (10 OR 30%), Method: PREINCUBATION
Setting [13] is: Test System: AMES SALMONELLA TYPHIMURIUM, Strain/Indicator: TA100, Metabolic Activation: RAT, LIVER, S-9, AROCLOR 1254 (10 OR 30%), Method: PREINCUBATION
The mark [14] stands for this setting: Test System: AMES SALMONELLA TYPHIMURIUM, Strain/Indicator: TA1535, Metabolic Activation: HAMSTER, LIVER, S-9, AROCLOR 1254 (10 OR 30%), Method: PREINCUBATION
Setting [15] is: Test System: AMES SALMONELLA TYPHIMURIUM, Strain/Indicator: TA1535, Metabolic Activation: RAT, LIVER, S-9, AROCLOR 1254 (10 OR 30%), Method: PREINCUBATION

Regarding `Clc1cccc2c1oc1ccccc12`, the mutagenic call runs as follows: under setting [1], “inactive; negative”; (Test System: AMES SALMONELLA TYPHIMURIUM, Strain/Indicator: TA98, Metabolic Activation: RAT, LIVER, S-9, PHENOBARBITAL AND NAPHTHOFLAVONE, Method: STANDARD PLATE) “inactive; negative”; under setting [2], “inactive; negative”; (Test System: AMES SALMONELLA TYPHIMURIUM, Strain/Indicator: TA100, Metabolic Activation: RAT, LIVER, S-9, PHENOBARBITAL AND NAPHTHOFLAVONE, Method: STANDARD PLATE) “inactive; negative”.

On to `CCOC(=O)Nc1ccc(SC[C@@H]2CO[C@@](Cn3ccnc3)(c3ccc(Cl)cc3Cl)O2)cc1`, for which the mutagenic call (End Point: IN VIVO MICRONUCLEUS, Test System: BLOOD ERYTHROCYTES, Species: MOUSE, Strain/Sex: CD-1/MALE, Route: ORAL) was “active; positive (at 48 and 72 hr at higher dose)”.

Consider `CCN(CC)CCCN(c1ccccc1)C1Cc2ccccc2C1`, for which the mutagenic call is, setting by setting: under setting [3], “inactive; negative”; (Test System: AMES SALMONELLA TYPHIMURIUM, Strain/Indicator: TA98, Metabolic Activation: S-9, Method: PREINCUBATION) “inactive; negative”; under setting [4], “inactive; negative”; (Test System: AMES SALMONELLA TYPHIMURIUM, Strain/Indicator: TA100, Metabolic Activation: S-9, Method: PREINCUBATION) “inactive; negative”; under setting [5], “inactive; negative”; (Test System: AMES SALMONELLA TYPHIMURIUM, Strain/Indicator: TA1535, Metabolic Activation: S-9, Method: PREINCUBATION) “inactive; negative”. Also, the mutagenic call by setting is: under setting [6], “inactive; negative”; (Test System: AMES SALMONELLA TYPHIMURIUM, Strain/Indicator: TA1537, Metabolic Activation: S-9, Method: PREINCUBATION) “inactive; negative”; (Test System: AMES SALMONELLA TYPHIMURIUM, Strain/Indicator: TA1538, Metabolic Activation: NONE, Method: PREINCUBATION) “inactive; negative”; (Test System: AMES SALMONELLA TYPHIMURIUM, Strain/Indicator: TA1538, Metabolic Activation: S-9, Method: PREINCUBATION) “inactive; negative”; (Test System: E. COLI, Strain/Indicator: WP2 UVRA, Metabolic Activation: NONE, Method: PREINCUBATION) “inactive; negative”; (Test System: E. COLI, Strain/Indicator: WP2 UVRA, Metabolic Activation: S-9, Method: PREINCUBATION) “inactive; negative”.

As to `C[C@]12C/C(=C/O)C(=O)C[C@@H]1CC[C@@H]1[C@@H]2CC[C@@]2(C)[C@H]1CC[C@]2(C)O`, the mutagenic call is “inactive; negative” under setting [7]; “inactive; negative” under setting [8]; “inactive; negative” under setting [9]; “inactive; negative” under setting [10]; “inactive; negative” under setting [3]; “inactive; negative” under setting [1]. For the same molecule, the mutagenic call is “inactive; negative” (Test System: AMES SALMONELLA TYPHIMURIUM, Strain/Indicator: TA98, Metabolic Activation: RAT LIVER S-9, AROCLOR 1254, 10%, Method: STANDARD PLATE); “inactive; negative” under setting [11]; “inactive; negative” under setting [12]; “inactive; negative” under setting [4]; “inactive; negative” under setting [2]; “inactive; negative” (Test System: AMES SALMONELLA TYPHIMURIUM, Strain/Indicator: TA100, Metabolic Activation: RAT LIVER S-9, AROCLOR 1254, 10%, Method: STANDARD PLATE). The mutagenic call reads like this: under setting [13], “inactive; negative”; under setting [14], “inactive; negative”; under setting [5], “inactive; negative”; (Test System: AMES SALMONELLA TYPHIMURIUM, Strain/Indicator: TA1535, Metabolic Activation: NONE, Method: STANDARD PLATE) “inactive; negative”; (Test System: AMES SALMONELLA TYPHIMURIUM, Strain/Indicator: TA1535, Metabolic Activation: RAT LIVER S-9, AROCLOR 1254, 10%, Method: STANDARD PLATE) “inactive; negative”; under setting [15], “inactive; negative”. Also, the mutagenic call is “inactive; negative” (Test System: AMES SALMONELLA TYPHIMURIUM, Strain/Indicator: TA1537, Metabolic Activation: NONE, Method: STANDARD PLATE); “inactive; negative” (Test System: AMES SALMONELLA TYPHIMURIUM, Strain/Indicator: TA1537, Metabolic Activation: RAT LIVER S-9, AROCLOR 1254, 10%, Method: STANDARD PLATE); “inactive; negative” (Test System: ESCHERICHIA COLI, Strain/Indicator: WP2 UVRA, Metabolic Activation: NONE, Method: STANDARD PLATE); “inactive; negative” (Test System: ESCHERICHIA COLI, Strain/Indicator: WP2 UVRA, Metabolic Activation: RAT LIVER S-9, AROCLOR 1254, 10%, Method: STANDARD/PLATE); “inactive; negative” (Test System: MOUSE LYMPHOMA, Strain/Indicator: L5178Y (TK+/TK-), Metabolic Activation: NONE, Method: SUSPENSION PLATE); “inactive; negative” (Test System: MOUSE LYMPHOMA, Strain/Indicator: L5178Y (TK+/TK-), Metabolic Activation: RAT LIVER S-9, AROCLOR 1254, 3%, NADP, ISOCITRATE, Method: SUSPENSION/PLATE).

With `[Na+]`, the mutagenic call was “inactive; negative” under setting [7]; “inactive; negative” under setting [8]; “inactive; negative” under setting [9]; “inactive; negative” under setting [10]; “inactive; negative” under setting [3]; “inactive; negative” under setting [11]. Besides, the mutagenic call is, setting by setting: under setting [12], “inactive; negative”; under setting [4], “inactive; negative”; under setting [13], “inactive; negative”; under setting [14], “inactive; negative”; under setting [5], “inactive; negative”; under setting [15], “inactive; negative”. Also, the mutagenic call was “inactive; negative” (Test System: AMES SALMONELLA TYPHIMURIUM, Strain/Indicator: TA1537, Metabolic Activation: HAMSTER, LIVER, S-9, AROCLOR 1254 (30%), Method: PREINCUBATION); “inactive; negative” under setting [6]; “inactive; negative” (Test System: AMES SALMONELLA TYPHIMURIUM, Strain/Indicator: TA1537, Metabolic Activation: RAT, LIVER, S-9, AROCLOR 1254 (30%), Method: PREINCUBATION); “inactive; negative” (Test System: CHINESE HAMSTER OVARY, Strain/Indicator: CHO-K1-BH4 (HGPRT), Metabolic Activation: NONE, Method: SUSPENSION/PLATE); “inactive; negative” (Test System: CHINESE HAMSTER OVARY, Strain/Indicator: CHO-K1-BH4 (HGPRT), Metabolic Activation: RAT, LIVER, S-9, AROCLOR, Method: SUSPENSION/PLATE); “active; positive” (Test System: MOUSE LYMPHOMA, Strain/Indicator: L5178Y (TK+/TK-), Metabolic Activation: NONE, Method: SUSPENSION/PLATE).
